# Test system: healthy subjects
# Experiment: Phase 1 study: adverse events (TEAEs, MedDRA coded)
# Type: in vivo, human
# Details: 25 mg oral
# Description: A Phase 1 randomized, double-blind, placebo-controlled study to evaluate the effect of psilocybin on cognitive and emotional processing as compared to placebo in healthy volunteers was conducted. The study investigated the short-term (Day 7) and long-term (Day 28) effects of moderate (10 mg) and high doses (25 mg) of psilocybin on key domains of cognition, such as episodic memory, attention, working and spatial memory, social cognition and elements of executive function, including cognitive flexibility.
# Each subject was assigned 1 treatment bottle containing 5 capsules packaged in a double-blind fashion, depending on the randomized treatment arm, the bottle contained one of the following: • a. Psilocybin 10 mg: 2×5-mg oral psilocybin capsules plus 3×placebo capsules • b. Psilocybin 25 mg: 5×5-mg oral psilocybin capsules • c. Placebo: 5×placebo capsules
# Each 5-mg oral psilocybin capsules comprised 5 mg crystalline psilocybin in the form or Polymorph A, 12.5 mg of SMCC 50, 79.5 mg of SMCC 90, 1 mg sodium starch glycolate, 1 mg colloidal silicon dioxide, and 1 mg sodium stearyl fumarate
# Adverse events: Throughout the course of the study, all AEs were monitored and recorded. Each AE was classified according to the following criteria: • i. […] Moderate: The AE produces some impairment of functioning, but is not hazardous to the subject's health. • iii. Severe: The AE produces significant impairment of functioning or incapacitation and is a definite hazard to the subject's health.
# Visit 3 (V3): Drug Administration (Day 0): The subject was asked to eat a light breakfast at least two hours prior to coming to the clinic for study drug administration. On Day 0 (V3), the subject underwent the SSTS, had vital signs obtained, medications reviewed, AEs recorded and eligibility reviewed prior to being randomized to study drug. The study drug was administered to up to six subjects simultaneously in individual beds separated by a curtain. The subject was invited to put on eyeshades and headphones, lie down and listen to calming music for the rest of the session (six hours). The subject was supported 1:1 with a chaperone and supervised by the study psychiatrist and lead therapist.
# During administration of psilocybin, each subject received one-on-one support from a trained assisting therapist and each dosing session was supervised by a study psychiatrist and a lead therapist. The study drug was administered simultaneously to up to six participants as a single 5-capsule oral dose (10 mg psilocybin: 2×5-mg psilocybin capsules plus 3×placebo capsules; 25 mg psilocybin: 5×5-mg psilocybin capsules; placebo: 5×placebo capsules). Twenty-five dosing sessions were completed, with up to six participants dosed simultaneously per session. Each session lasted approximately 6 to 8 hours with subjects encouraged to relax and engage in introspection for the duration. After the acute effects of the study drug had subsided, subjects were discharged.
compound,measurement,value
"CN(C)CCc1c[nH]c2cccc(OP(=O)(O)O)c12 [Psilocybin, psilocybin]","Affect lability, N (%)",3 (10.0)
same,"Affect lability, worst severity Mild, Events",2
same,"Affect lability, worst severity Mild, N (%)",2 (6.7)
same,"Affect lability, worst severity Moderate, Events",1
same,"Affect lability, worst severity Moderate, N (%)",1 (3.3)
same,"Affect lability, worst severity Severe, Events",0
same,"Affect lability, worst severity Severe, N (%)",0
same,"Any Selected TEAE, Events",106
same,"Any Selected TEAE, N (%)",27 (90.0)
same,"Any TEAE leading to death, Events",0
same,"Any TEAE leading to death, N (%)",0
same,"Any TEAE leading to study discontinuation, Events",0
same,"Any TEAE leading to study discontinuation, N (%)",0
same,"Any TEAE related to study treatment, Events",208
same,"Any TEAE related to study treatment, N (%)",29 (96.7)
same,"Any TEAE, Events",217
same,"Any TEAE, N (%)",29 (96.7)
same,"Any TEAE, worst severity Mild, Events",14
same,"Any TEAE, worst severity Mild, N (%)",3 (10.0)
same,"Any TEAE, worst severity Moderate, Events",52
same,"Any TEAE, worst severity Moderate, N (%)",16 (53.3)
same,"Any TEAE, worst severity Severe, Events",29
same,"Any TEAE, worst severity Severe, N (%)",10 (33.3)
same,"Any serious TEAE related to study treatment, Events",0
same,"Any serious TEAE related to study treatment, N (%)",0
same,"Any serious TEAE, Events",0
same,"Any serious TEAE, N (%)",0
same,"Any severe TEAE, Events",29
same,"Any severe TEAE, N (%)",10 (33.3)
same,"Change in sustained attention, Events",0
same,"Change in sustained attention, N (%)",0
same,"Depressed mood, Events",2
same,"Depressed mood, N (%)",2 (6.7)
same,"Dissociative identity disorder, Events",2
same,"Dissociative identity disorder, N (%)",2 (6.7)
same,"Emotional disorder, Events",6
same,"Emotional disorder, N (%)",5 (16.7)
same,"Emotional disorder, worst severity Mild, Events",1
same,"Emotional disorder, worst severity Mild, N (%)",1 (3.3)
same,"Emotional disorder, worst severity Moderate, Events",5
same,"Emotional disorder, worst severity Moderate, N (%)",4 (13.3)
same,"Emotional disorder, worst severity Severe, Events",0
same,"Emotional disorder, worst severity Severe, N (%)",0
same,"Euphoric mood, Events",8
same,"Euphoric mood, N (%)",7 (23.3)
same,"Euphoric mood, worst severity Mild, Events",3
same,"Euphoric mood, worst severity Mild, N (%)",3 (10.0)
same,"Euphoric mood, worst severity Moderate, Events",4
same,"Euphoric mood, worst severity Moderate, N (%)",4 (13.3)
same,"Euphoric mood, worst severity Severe, Events",0
same,"Euphoric mood, worst severity Severe, N (%)",0
same,"Fatigue, Events",8
same,"Fatigue, N (%)",8 (26.7)
same,"Fatigue, worst severity Mild, Events",3
same,"Fatigue, worst severity Mild, N (%)",3 (10.0)
same,"Fatigue, worst severity Moderate, Events",5
same,"Fatigue, worst severity Moderate, N (%)",5 (16.7)
same,"Fatigue, worst severity Severe, Events",0
same,"Fatigue, worst severity Severe, N (%)",0
same,"Feeling abnormal, Events",0
same,"Feeling abnormal, N (%)",0
same,"Feeling abnormal, worst severity Mild, Events",0
same,"Feeling abnormal, worst severity Mild, N (%)",0
same,"Feeling abnormal, worst severity Moderate, Events",0
same,"Feeling abnormal, worst severity Moderate, N (%)",0
same,"Feeling abnormal, worst severity Severe, Events",0
same,"Feeling abnormal, worst severity Severe, N (%)",0
same,"Feeling of relaxation, Events",1
same,"Feeling of relaxation, N (%)",1 (3.3)
same,"Gastrointestinal disorders, Events",5
same,"Gastrointestinal disorders, N (%)",5 (16.7)
same,"Gastrointestinal disorders, worst severity Mild, Events",4
same,"Gastrointestinal disorders, worst severity Mild, N (%)",4 (13.3)
same,"Gastrointestinal disorders, worst severity Moderate, Events",1
same,"Gastrointestinal disorders, worst severity Moderate, N (%)",1 (3.3)
same,"Gastrointestinal disorders, worst severity Severe, Events",0
same,"Gastrointestinal disorders, worst severity Severe, N (%)",0
same,"General disorders and administration site conditions, Events",18
same,"General disorders and administration site conditions, N (%)",15 (50.0)
same,"General disorders and administration site conditions, worst severity Mild, Events",8
same,"General disorders and administration site conditions, worst severity Mild, N (%)",8 (26.7)
same,"General disorders and administration site conditions, worst severity Moderate, Events",7
same,"General disorders and administration site conditions, worst severity Moderate, N (%)",6 (20.0)
same,"General disorders and administration site conditions, worst severity Severe, Events",1
same,"General disorders and administration site conditions, worst severity Severe, N (%)",1 (3.3)
same,"Hallucination, Events",2
same,"Hallucination, N (%)",2 (6.7)
same,"Hallucination, auditory, Events",4
same,"Hallucination, auditory, N (%)",4 (13.3)
same,"Hallucination, auditory, worst severity Mild, Events",1
same,"Hallucination, auditory, worst severity Mild, N (%)",1 (3.3)
same,"Hallucination, auditory, worst severity Moderate, Events",3
same,"Hallucination, auditory, worst severity Moderate, N (%)",3 (10.0)
same,"Hallucination, auditory, worst severity Severe, Events",0
same,"Hallucination, auditory, worst severity Severe, N (%)",0
same,"Hallucination, gustatory, Events",0
same,"Hallucination, gustatory, N (%)",0
same,"Hallucination, olfactory, Events",1
same,"Hallucination, olfactory, N (%)",1 (3.3)
same,"Hallucination, tactile, Events",4
same,"Hallucination, tactile, N (%)",4 (13.3)
same,"Hallucination, visual, Events",22
same,"Hallucination, visual, N (%)",21 (70.0)
same,"Hallucination, visual, worst severity Mild, Events",3
same,"Hallucination, visual, worst severity Mild, N (%)",3 (10.0)
same,"Hallucination, visual, worst severity Moderate, Events",13
same,"Hallucination, visual, worst severity Moderate, N (%)",13 (43.3)
same,"Hallucination, visual, worst severity Severe, Events",5
same,"Hallucination, visual, worst severity Severe, N (%)",5 (16.7)
same,"Hallucination, worst severity Mild, Events",0
same,"Hallucination, worst severity Mild, N (%)",0
same,"Hallucination, worst severity Moderate, Events",2
same,"Hallucination, worst severity Moderate, N (%)",2 (6.7)
same,"Hallucination, worst severity Severe, Events",0
same,"Hallucination, worst severity Severe, N (%)",0
same,"Headache, Events",16
same,"Headache, N (%)",15 (50.0)
same,"Headache, worst severity Mild, Events",10
same,"Headache, worst severity Mild, N (%)",10 (33.3)
same,"Headache, worst severity Moderate, Events",5
same,"Headache, worst severity Moderate, N (%)",5 (16.7)
same,"Headache, worst severity Severe, Events",0
same,"Headache, worst severity Severe, N (%)",0
same,"Hypoaesthesia, Events",4
same,"Hypoaesthesia, N (%)",3 (10.0)
same,"Hypoaesthesia, worst severity Mild, Events",4
same,"Hypoaesthesia, worst severity Mild, N (%)",3 (10.0)
same,"Hypoaesthesia, worst severity Moderate, Events",0
same,"Hypoaesthesia, worst severity Moderate, N (%)",0
same,"Hypoaesthesia, worst severity Severe, Events",0
same,"Hypoaesthesia, worst severity Severe, N (%)",0

# From patent publication US20230023092A1, “TREATMENT OF DEPRESSION AND OTHER VARIOUS DISORDERS WITH PSILOCYBIN” (COMPASS […], priority 2019, published 2023)
